Reference: BindingDB's records for doi:10.1039/c5md00579e (The Scripps Research Institute, 2016)
pEC50: −log10 of the molar value.

Experiment: Inhibition of MCT1 in human Raji cells assessed as inhibition of cell proliferation after 96 hrs by MTT assay

SMILES	pEC50
CC(C)Cc1nn(C)c(=O)c2c(SCCCO)n(Cc3ccc(Cl)nc3)cc12	6.16
CC(C)Cc1nn(C)c(=O)c2c(SCCCO)n(Cc3ccnc(NCCCCCN)c3)cc12	6.28
CC(C)Cc1nn(C)c(=O)c2c(SCCCO)n(Cc3ccnc(Cl)c3)cc12	6.00
CC(C)Cc1nn(C)c(=O)c2c(SCCCO)n(Cc3ccnc(NCCCCCNC(=O)[C@@H](N)CCC(N)=O)c3)cc12	6.30
CC(C)Cc1nn(C)c(=O)c2c(SCCCO)n(Cc3ccc(NCCCCCNC(=O)[C@@H](N)CCC(N)=O)nc3)cc12	7.00
CC(C)Cc1nn(C)c(=O)c2c(SCCCO)n(Cc3ccc(NCCCCCN)nc3)cc12	6.38

The next compounds have a higher pEC50 than those just listed; values first:

pEC50	SMILES
7.26	CC(C)Cc1nn(C)c(=O)c2c(SCCCO)n(Cc3cnc(Cl)c4ccccc34)cc12
7.96	CC(C)Cc1nn(C)c(=O)c2c(SCCCO)n(Cc3ccc(Br)c4ccccc34)cc12
7.62	CC(C)Cc1nn(C)c(=O)c2c(SCCCO)n(Cc3cc(NCCCCCN)nc4ccccc34)cc12
8.40	CC(C)Cc1nn(C)c(=O)c2c(SCCCO)n(Cc3ccc(C#CCCCNC(=O)[C@@H](N)CCC(N)=O)c4ccccc34)cc12
9.10	CC(C)Cc1nn(C)c(=O)c2c(SCCCO)n(Cc3cnc(NCCCCCN)c4ccccc34)cc12
9.10	CC(C)Cc1nn(C)c(=O)c2c(SCCCO)n(Cc3ccc(C#CCCCOc4ccc(C[C@H](N)C(=O)O)cc4)c4ccccc34)cc12
9.80	CC(C)Cc1nn(C)c(=O)c2c(SCCCO)n(Cc3cnc(NCCCCCNC(=O)[C@@H](N)CCC(N)=O)c4ccccc34)cc12
7.22	CC(C)Cc1nn(C)c(=O)c2c(SCCCO)n(Cc3cc(Cl)nc4ccccc34)cc12
9.10	CC(C)Cc1nn(C)c(=O)c2c(SCCCO)n(Cc3cc(NCCCCCNC(=O)[C@@H](N)CCC(N)=O)nc4ccccc34)cc12
